# In patent publication US8940788B2, “Anti-angiogenic composition containing macrolactin A and a derivative thereof as active ingredients” (Daewoo Pharmaceutical Ind. Co., Ltd., priority 2010, dated 2015):
# Tests used:
# [1] = test system: chorioallantoic membrane (CAM) neovascular formation induced by IL-8; test: CAM analysis of suppressive effect on angiogenesis, neovascular formation induced by IL-8; assay type: in vivo, chicken; conditions: IL-8 20 ng/CAM; various concentrations of compound; three days after treatment
# Description: (§1) In order to confirm an anti-angiogenic effect of the macrolactin compounds in in vivo test, chorioallantoic membrane (CAM) analysis was carried out (Nguyen M. et al., Microvascular Res., 47, pp. 31-40, 1994). 6±1 fertile eggs were used per group.
# (§2) Fertile chicken eggs were cultured while maintaining the temperature of 37° C. and the relative humidity of 55%. On the third day of culture, a first small hole was made in the air sac part with a hypodermic needle (Green Cross Medical Corporation, Korea), and a second hole was made in the plat part of the fertile eggs to make a window.
# (§3) The CAM was separated from the eggshell by expelling the air through the first hole in the air sac, and then the part was cut with a grinding wheel (Multipro 395JA, Dremel, Mexico) to make a window.
# (§4) A Whatman filter disc #1 (Whatman, USA) was treated with 3 mg/ml of cortisone acetate and dried. The filter disc was treated with 10 μl of VEGF, TNF-α or IL-8 (20 ng/CAM).
# (§5) Through the pre-made window, the filter disc was put on blood vessel, and then treated with various concentrations of MA, MMA or SMA which was dissolved in DMSO and diluted with PBS.
# (§6) Three days after treatment, the CAM part with the filter disc was separated and washed with phosphate buffer solution. […]
# [2] = test system: chorioallantoic membrane (CAM) neovascular formation induced by VEGF; test: CAM analysis of suppressive effect on angiogenesis, neovascular formation induced by VEGF; assay type: in vivo, chicken; conditions: VEGF 20 ng/CAM; for suppression of neovascular formation caused by VEGF (number of blood vessel branches): various concentrations of compound, three days after treatment
# Description: as §1, §2, §3, §4, §5
# Three days after treatment, the CAM part with the filter disc was separated and washed with phosphate buffer solution. The photographs were taken by using a stereomicroscope (Leica, Wetzlar, Germany) and Image-Pro Plus software (Media Cybernetics; Silver Spring, Md., USA) to determine the number of bleed vessel branches and to analyze the data.
# All data were represented as mean±standard error of mean, and the statistical analysis was done as one-way ANOVA by using GraphPad Prism 4 Software (San Diego, Calif., USA). Multiple comparisons between the differences of each group were made by using the NK (Newman-Keuls) method. When p-value was less than 0.05, the data were regarded as statistically significant.
# [3] = test system: Human fibrosarcoma cells (HT-1080); test: Infiltration test of fibrosarcoma cells (suppressive effect on metastasis of cancer), transwell with Matrigel; assay type: cell-based; conditions: 18 hours
# Description: Human fibrosarcoma cells (HT-1080) were cultured in DMEM containing 10% fetal bovine serum (FBS) and 1% penicillin/streptomycin (PS) under the condition of 37° C. and 5% CO2. When the cells grew to fill 80% or more of the culture flask, they were subcultured at a ratio of 1:3 and used in this test. In order to confirm the suppressive effect of the macrolactin compounds on metastasis of cancer in in vitro experiments, an infiltration test of fibrosarcoma cells was carried out by using a 24-well transwell attached with a polycarbonate filter of […] pore size. Firstly, the bottom side of the filter was coated with Collagen Type I (0.5 mg/ml), and then the upper side of the filter was coated with Matrigel (1.5 mg/ml). After coating, the lower part of the insert was filled with a medium containing 5% FBS, and the upper part was filled with serum-free medium human fibrosarcoma cells (HT-1080) which were incubated for 18 hours in a cell incubator. The human fibrosarcoma cells infiltrated into the bottom side of the filter were fixed with methanol and then dyed with hematoxylin and eosin. The infiltrated cells were observed under a microscope, and 3 parts were randomly selected from each filter to take photographs and determine the number of cells (Kim, M. S. et al., Cancer Res., 63, pp. 5454-5461, 2003; Park, B. C. et al., Eur. J. Pharm., 567, pp. 193-197, 2007).
# [4] = test system: chorioallantoic membrane (CAM) neovascular formation induced by TNF-α; test: CAM analysis of suppressive effect on angiogenesis, neovascular formation induced by TNF-α; assay type: in vivo, chicken; conditions: TNF-α 20 ng/CAM; various concentrations of compound; three days after treatment
# Description: as §1, §2, §3, §4, §5, §6
Structure (SMILES),suppression of neovascular formation caused by IL-8 (number of blood vessel branches) [1],suppression of neovascular formation caused by VEGF (number of blood vessel branches) [2],dose dependence of suppression of metastasis (infiltration) of fibrosarcoma cells induced by 5% FBS [3],suppression of neovascular formation caused by TNF-α (number of blood vessel branches) [4],dose dependence of suppression of neovascular formation caused by VEGF ([2]; various concentrations),suppressive effect on metastasis (infiltration) of fibrosarcoma cells induced by 5% FBS ([3]; compound 1 μM),suppressive effect on metastasis (infiltration) of fibrosarcoma cells induced by 5% FBS ([3]; compound 5 μM)
"CC1CCC/C=C/C=C/[C@H](O)C[C@@H](O)C/C=C\C=C\[C@@H](O)C/C=C/C=C\C(=O)O1 (stereo partly drawn) [MA, macrolactin A]",strongly suppressed,strongly suppressed,in a dose-dependent way,strongly suppressed,–,–,–
"C[C@@H]1CCC/C=C/C=C/[C@H](O)C[C@@H](O)C/C=C\C=C\[C@@H](OC(=O)CC(=O)O)C/C=C/C=C\C(=O)O1 [MMA, 7-O-malonyl macrolactin A]",–,strongly suppressed,–,–,–,–,–
"C[C@@H]1CCC/C=C/C=C/[C@H](O)C[C@@H](O)C/C=C\C=C\[C@@H](OC(=O)CCC(=O)O)C/C=C/C=C\C(=O)O1 [SMA, 7-O-succinyl macrolactin A]",strongly suppressed,strongly suppressed,in a dose-dependent way,strongly suppressed,suppressed neovascular formation in a dose-dependent way,significant suppressive effect,superior suppressive effect on the metastasis comparable to that of batimastat
